The test system of data set [1] is wild-type TynA with W110C FeaR. It counts as cell-based, E. coli MG1655. As to conditions: W110C FeaR; 24 h; FIG. 28D. As for the experimental part:
(§1) Flow cytometry was performed as previously described. […] Cytometry data was gated by forward and side scatter.

Data set [2] concerns wild-type TynA with W110S FeaR. Format: cell-based, E. coli MG1655. As to conditions: W110S FeaR; 24 h; FIG. 28C. As for the experimental part: as §1
Data set [3] has as its system wild-type TynA with M83Q FeaR. It counts as cell-based, E. coli MG1655. The conditions noted are these: M83Q FeaR; 24 h; FIG. 28A. As for the experimental part:
as §1

Data set [4] has as its system wild-type TynA with L108T FeaR. Format: cell-based, E. coli MG1655. The conditions noted are these: L108T FeaR; 24 h; FIG. 28B. As for the experimental part: as §1
Data set [5] concerns sensor systems containing FeaR-KA. As to the kind of experiment: GFP fluorescence from PtynA in part-swapped sensor systems containing FeaR-KA. Format: cell-based, Klebsiella aerogenes. As to conditions: 0.5 mM, 24 h, FIG. 31. The text has this:
FIG. 31. […] PtynA from MG or KP/KA was regulated by TynA from MG or KP and FeaR from MG or KA. […] Values and error bars are the average and standard deviation of biological triplicate, respectively.
Tryptamine specific biosensors were first designed by genetic parts swapping. Three types of tynA and feaR genes from E. coli K-12 MG1655 (MG), Klebsiella aerogenes (KA), and Klebsiella pneumoniae (KP), and two types of PtynA sequences were chosen and tested in 18 different combinations (see e.g., FIG. 30). PtynA-KP/KA was constructed by replacing the FeaR binding sites of PtynA-MG with those from Klebsiella species.
Moreover, a Tryptamine specific variant I109N was discovered using a sensor system with PtynA-MG, TynA-KP and FeaR-KA as the wild type (VVT) for further directed evolution (see e.g., FIG. 32). […] Transfer curves for the tryptamine-specific FeaR-KA I109N sensor after 5 or 24 hours of induction further illustrate the specificity of the sensor for tryptamine (see e.g., FIG. 33A-FIG. 33B).

For data set [6], the target named is T1, WT TrpR (Escherichia coli, UniProt P0A881).
T1 construct: trpR (WT); expressed in transfected cells; host or cells: E. coli Nissle 1917 (EcN), genomic trpR knocked out; plasmid pMBA035 (P17-trpR)
Briefly: WT TrpR system, repression of GFP expression. It counts as cell-based, E. coli. The source says: Among the various aspects of the present disclosure is the provision of systems and methods for detecting aromatic compounds. An aspect of the present disclosure provides for a method of protein engineering (e.g., a regulator protein) comprising: mutagenizing specific amino acids in and around a ligand-binding site of a protein, wherein the mutagenizing enables changes in ligand-protein binding specificity while maintaining protein-DNA interaction and thus downstream gene expression control; and/or linking ligand-protein binding to output response. An aspect of the present disclosure provides for an engineered molecular sensor. […] In some embodiments, the engineered regulator protein or the ligand-protein binding site or a sequence encoding the engineered regulator protein or the ligand-protein binding site of the engineered regulator protein is at least about 80% identical to a WT regulator protein or a WT regulator ligand-protein binding site; or a sequence encoding the engineered regulator protein or ligand binding site thereof is at least about 80% identical to a sequence encoding the WT regulator protein or the WT regulator ligand-protein binding site; or functional fragment thereof, the engineered regulator protein having ligand binding activity. In some embodiments, the engineered molecular sensor is optionally genomically integrated into a microorganism, optionally selected from a probiotic or is a purified cell-free sensor. In some embodiments, the engineered regulator protein or enzyme is an engineered TrpR, TyrR, TynA, or FeaR protein. […] In some embodiments, the engineered regulator protein is an engineered TrpR and is a tryptophan (Trp)-, 5-hydroxytryptophan (5-HTP)-, or tryptamine (Trpta)-specific sensor. In some embodiments, the engineered regulator protein or enzyme is an engineered TrpR, TyrR, TynA, or FeaR, and/or wherein the engineered TrpR, TyrR, TynA, or FeaR comprises at least one mutation to a ligand-protein binding site having specific amino acid binding activity. […]

The conditions of data set [7]: Sauerkraut, safe limit; cited from earlier work.
Data set [8] relates to wild-type TynA with M83Y FeaR. As to the kind of experiment: PtynA-GFP reporter, wild-type TynA with M83Y FeaR (pCX068). It counts as cell-based, E. coli MG1655. As to conditions: pCX008, pCX068, FIG. 6D, 24 h. As for the experimental part: as §1

Take `NCCc1c[nH]c2ccccc12` [Tryptamine, tryptamine]: the response result in data set [1], in data set [2], in data set [3] and in data set [4] was “lack of response” in each case. In addition, the fluorescence intensity entry in data set [5] is listed as “significant enhancement of fluorescence intensity”. Besides, the “fold repression of GFP expression” value in data set [6] amounted to 7 fold.
In the case of `NCCc1ccccc1` [Phenylethylamine, phenylethylamine], in data set [7], the Concentration was 30 µM. Besides, in data set [8], the Fmax was determined as 1004, the Fmin was 5.8 and the “n (Hill coefficient)” value worked out at 2.1.
